# From patent US20040063662A1, “Selenophene anti-tumor agents” (priority 1996, published 2004)
# Columns and labels:
# [1] = test system: CCRF-CEM; assay: NCI human tumor cell panel: CCRF-CEM (Leukemia); format: cell-based; conditions: for GI50: read-out: Log10 GI50 (converted); for IC (TGI): read-out: Log10 TGI (converted)
# [2] = test system: MOLT-4; assay: NCI human tumor cell panel: MOLT-4 (Leukemia); format: cell-based; conditions: for GI50: MOLT-4, read-out: Log10 GI50 (converted); for IC (TGI): MOLT-4, read-out: Log10 TGI (converted)
# [3] = test system: RPMI-8226; assay: NCI human tumor cell panel: RPMI-8226 (Leukemia); format: cell-based; conditions: for GI50: RPMI-8226, read-out: Log10 GI50 (converted); for IC (TGI): RPMI-8226, read-out: Log10 TGI
# [4] = test system: A549/ATCC; assay: NCI human tumor cell panel: A549/ATCC (Non-Small Cell Lung Cancer); format: cell-based; conditions: for GI50: read-out: Log10 GI50 (converted); for IC (TGI): read-out: Log10 TGI (converted)
# [5] = test system: EKVX; assay: NCI human tumor cell panel: EKVX (Non-Small Cell Lung Cancer); format: cell-based; conditions: for GI50: read-out: Log10 GI50 (converted); for IC (TGI): read-out: Log10 TGI (converted)
# [6] = test system: HOP-62; assay: NCI human tumor cell panel: HOP-62 (Non-Small Cell Lung Cancer); format: cell-based; conditions: for GI50: HOP-62, read-out: Log10 GI50 (converted); for IC (TGI): HOP-62, read-out: Log10 TGI (converted)
# [7] = test system: NCI-H23; assay: NCI human tumor cell panel: NCI-H23 (Non-Small Cell Lung Cancer); format: cell-based; conditions: for GI50: NCI-H23, read-out: Log10 GI50 (converted); for IC (TGI): NCI-H23, read-out: Log10 TGI (converted)
# [8] = test system: HCT-116; assay: NCI human tumor cell panel: HCT-116 (Colon Cancer); format: cell-based; conditions: for GI50: HCT-116, read-out: Log10 GI50 (converted); for IC (TGI): HCT-116, read-out: Log10 TGI (converted)
# [9] = test system: HCT-15; assay: NCI human tumor cell panel: HCT-15 (Colon Cancer); format: cell-based; conditions: for GI50: HCT-15, read-out: Log10 GI50 (converted); for IC (TGI): HCT-15, read-out: Log10 TGI (converted)
# [10] = test system: HT29; assay: NCI human tumor cell panel: HT29 (Colon Cancer); format: cell-based; conditions: for GI50: HT-29, HT29, read-out: Log10 GI50 (converted); for IC (TGI): HT-29, HT29, read-out: Log10 TGI (converted)
# [11] = test system: SW-620; assay: NCI human tumor cell panel: SW-620 (Colon Cancer); format: cell-based; conditions: for GI50: SW-620, read-out: Log10 GI50 (converted); for IC (TGI): SW-620, read-out: Log10 TGI (converted)
# [12] = test system: SF-295; assay: NCI human tumor cell panel: SF-295 (CNS Cancer); format: cell-based; conditions: for GI50: SF-295, read-out: Log10 GI50 (converted); for IC (TGI): SF-295, read-out: Log10 TGI (converted)
# [13] = test system: SF-539; assay: NCI human tumor cell panel: SF-539 (CNS Cancer); format: cell-based; conditions: for GI50: SF-539, read-out: Log10 GI50 (converted); for IC (TGI): SF-539, read-out: Log10 TGI (converted)
# [14] = test system: SNB-19; assay: NCI human tumor cell panel: SNB-19 (CNS Cancer); format: cell-based; conditions: for GI50: SNB-19, read-out: Log10 GI50 (converted); for IC (TGI): SNB-19, read-out: Log10 TGI (converted)
# [15] = test system: U251; assay: NCI human tumor cell panel: U251 (CNS Cancer); format: cell-based; conditions: for GI50: U-251, U251, read-out: Log10 GI50 (converted); for IC (TGI): U-251, U251, read-out: Log10 TGI (converted)
# [16] = test system: LOX IMVI; assay: NCI human tumor cell panel: LOX IMVI (Melanoma); format: cell-based; conditions: for GI50: read-out: Log10 GI50 (converted); for IC (TGI): read-out: Log10 TGI (converted)
# [17] = test system: MALME-3M; assay: NCI human tumor cell panel: MALME-3M (Melanoma); format: cell-based; conditions: Malme-3M; for GI50: read-out: Log10 GI50 (converted); for IC (TGI): read-out: Log10 TGI (converted)
# [18] = test system: UACC-62; assay: NCI human tumor cell panel: UACC-62 (Melanoma); format: cell-based; conditions: for GI50: UACC-62, read-out: Log10 GI50 (converted); for IC (TGI): UACC-62, read-out: Log10 TGI (converted)
# [19] = test system: OVCAR-3; assay: NCI human tumor cell panel: OVCAR-3 (Ovarian Cancer); format: cell-based; conditions: for GI50: OVCAR-3, read-out: Log10 GI50 (converted); for IC (TGI): OVCAR-3, read-out: Log10 TGI (converted)
# [20] = test system: OVCAR-4; assay: NCI human tumor cell panel: OVCAR-4 (Ovarian Cancer); format: cell-based; conditions: for GI50: OVCAR-4, read-out: Log10 GI50 (converted)
# [21] = test system: OVCAR-8; assay: NCI human tumor cell panel: OVCAR-8 (Ovarian Cancer); format: cell-based; conditions: for GI50: OVCAR-8, read-out: Log10 GI50 (converted); for IC (TGI): OVCAR-8, read-out: Log10 TGI (converted)
# [22] = test system: 786-0; assay: NCI human tumor cell panel: 786-0 (Renal Cancer); format: cell-based; conditions: for GI50: 786-0, read-out: Log10 GI50 (converted); for IC (TGI): 786-0, read-out: Log10 TGI (converted)
# [23] = test system: ACHN; assay: NCI human tumor cell panel: ACHN (Renal Cancer); format: cell-based; conditions: for GI50: read-out: Log10 GI50 (converted); for IC (TGI): read-out: Log10 TGI (converted)
# [24] = test system: SN12C; assay: NCI human tumor cell panel: SN12C (Renal Cancer); format: cell-based; conditions: for GI50: read-out: Log10 GI50 (converted); for IC (TGI): read-out: Log10 TGI (converted)
# [25] = test system: UO-31; assay: NCI human tumor cell panel: UO-31 (Renal Cancer); format: cell-based; conditions: for GI50: UO-31, read-out: Log10 GI50 (converted); for IC (TGI): UO-31, read-out: Log10 TGI (converted)
# [26] = test system: PC-3; assay: NCI human tumor cell panel: PC-3 (Prostate Cancer); format: cell-based; conditions: for GI50: PC-3, read-out: Log10 GI50 (converted); for IC (TGI): PC-3, read-out: Log10 TGI (converted)
# [27] = test system: DU-145; assay: NCI human tumor cell panel: DU-145 (Prostate Cancer); format: cell-based; conditions: for GI50: DU-145, read-out: Log10 GI50 (converted); for IC (TGI): DU-145, read-out: Log10 TGI (converted)
# [28] = test system: HS 578T; assay: NCI human tumor cell panel: HS 578T (Breast Cancer); format: cell-based; conditions: for IC (TGI): read-out: Log10 TGI (converted)
# [29] = test system: MDA-N; assay: NCI human tumor cell panel: MDA-N (Breast Cancer); format: cell-based; conditions: for GI50: read-out: Log10 GI50 (converted); for IC (TGI): read-out: Log10 TGI (converted)
# [30] = test system: BT-549; assay: NCI human tumor cell panel: BT-549 (Breast Cancer); format: cell-based; conditions: for GI50: BT-549, read-out: Log10 GI50 (converted); for IC (TGI): BT-549, read-out: Log10 TGI (converted)
# [31] = test system: HOP-92; assay: NCI human tumor cell panel: HOP-92 (Non-Small Cell Lung Cancer); conditions: for GI50: HOP-92, read-out: Log10 GI50 (converted); for IC (TGI): HOP-92, read-out: Log10 TGI
# [32] = test system: NCI-H522; assay: NCI human tumor cell panel: NCI-H522 (Non-Small Cell Lung Cancer); conditions: for GI50: NCI-H522, read-out: Log10 GI50 (converted); for IC (TGI): NCI-H522, read-out: Log10 TGI
smiles,measurement,setting,value
OCc1ccc(-c2ccc(-c3ccc(CO)[se]3)[se]2)[se]1 [compound 675247],GI50,[1],3.39 µM
same,IC (TGI),[1],10 µM
same,GI50,[2],3.31 µM
same,IC (TGI),[2],8.32 µM
same,GI50,[3],4.07 µM
same,IC (TGI),[3],> 100 µM
same,GI50,[4],4.57 µM
same,IC (TGI),[4],19.5 µM
same,GI50,[5],5.01 µM
same,IC (TGI),[5],34.7 µM
same,GI50,[6],5.5 µM
same,IC (TGI),[6],21.4 µM
same,GI50,[7],6.61 µM
same,IC (TGI),[7],25.1 µM
same,GI50,[8],0.537 µM
same,IC (TGI),[8],11.2 µM
same,GI50,[9],3.8 µM
same,IC (TGI),[9],12.3 µM
same,GI50,[10],1.62 µM
same,IC (TGI),[10],7.59 µM
same,GI50,[11],1.35 µM
same,IC (TGI),[11],3.63 µM
same,GI50,[12],11.7 µM
same,IC (TGI),[12],28.8 µM
same,GI50,[13],17.4 µM
same,IC (TGI),[13],40.7 µM
same,GI50,[14],5.5 µM
same,IC (TGI),[14],25.1 µM
same,GI50,[15],0.468 µM
same,IC (TGI),[15],12.3 µM
same,GI50,[16],3.02 µM
same,IC (TGI),[16],7.08 µM
same,GI50,[17],2.88 µM
same,IC (TGI),[17],10.7 µM
same,GI50,[18],0.155 µM
same,IC (TGI),[18],2.45 µM
same,GI50,[19],0.209 µM
same,IC (TGI),[19],1.17 µM
same,GI50,[20],1.7 µM
same,IC (TGI),"[20]; OVCAR-4, read-out: Log10 TGI (converted)",6.92 µM
same,GI50,[21],3.72 µM
same,IC (TGI),[21],17.8 µM
same,GI50,[22],2.75 µM
same,IC (TGI),[22],6.31 µM
same,GI50,[23],3.98 µM
same,IC (TGI),[23],> 100 µM
same,GI50,[24],2.75 µM
same,IC (TGI),[24],11.7 µM
same,GI50,[25],5.25 µM
same,IC (TGI),[25],14.8 µM
same,GI50,[26],3.55 µM
same,IC (TGI),[26],12.3 µM
same,GI50,[27],6.92 µM
same,IC (TGI),[27],19.5 µM
same,GI50,[28]; read-out: Log10 GI50 (converted),3.24 µM
same,IC (TGI),[28],11.2 µM
same,GI50,[29],7.76 µM
same,IC (TGI),[29],25.1 µM
same,GI50,[30],3.39 µM
same,IC (TGI),[30],14.1 µM
same,GI50,[31],2.4 µM
same,IC (TGI),[31],7.59 µM
same,GI50,[32],1.66 µM
same,IC (TGI),[32],3.39 µM
OCc1ccc(-c2ccc(-c3ccc(CO)[se]3)s2)s1 [compound 688830],GI50,[1],25.7 µM
same,IC (TGI),[1],> 100 µM
same,GI50,[2],38.9 µM
same,IC (TGI),[2],> 100 µM
same,GI50,[3],37.2 µM
same,IC (TGI),[3],> 100 µM
same,GI50,[4],6.03 µM
same,IC (TGI),[4],33.1 µM
same,GI50,[5],19.5 µM
same,IC (TGI),[5],66.1 µM
same,GI50,[6],0.0617 µM
same,IC (TGI),[6],28.2 µM
same,GI50,[7],85.1 µM
same,IC (TGI),[7],> 100 µM
same,GI50,[8],0.0275 µM
same,IC (TGI),[8],17.4 µM
same,GI50,[9],28.8 µM
same,IC (TGI),[9],> 100 µM
same,GI50,[10],0.224 µM
same,IC (TGI),[10],43.7 µM
same,GI50,[11],0.0398 µM
same,IC (TGI),[11],25.1 µM
same,GI50,[12],20.9 µM
same,IC (TGI),[12],56.2 µM
same,GI50,[13],15.5 µM
same,IC (TGI),[13],36.3 µM
same,GI50,[14],33.9 µM
same,IC (TGI),[14],87.1 µM
same,GI50,[15],0.0832 µM
same,IC (TGI),[15],20.9 µM
same,GI50,[16],13.5 µM
same,IC (TGI),[16],27.5 µM
same,GI50,[17],43.7 µM
same,IC (TGI),[17],> 100 µM
same,GI50,[18],0.0135 µM
same,IC (TGI),[18],> 100 µM
same,GI50,[19],< 0.01 µM
same,IC (TGI),[19],0.0562 µM
same,GI50,[20],0.105 µM
same,GI50,[21],6.92 µM
same,IC (TGI),[21],30.9 µM
same,GI50,[22],6.46 µM
same,IC (TGI),[22],22.9 µM
same,GI50,[23],20.9 µM
same,IC (TGI),[23],> 100 µM
same,GI50,[24],49 µM
same,IC (TGI),[24],> 100 µM
same,GI50,[25],> 100 µM
same,IC (TGI),[25],> 100 µM
same,GI50,[26],30.9 µM
same,IC (TGI),[26],> 100 µM
same,GI50,[27],22.9 µM
same,IC (TGI),[27],> 100 µM
same,IC (TGI),[28],> 100 µM
same,GI50,[29],97.7 µM
same,IC (TGI),[29],> 100 µM
same,GI50,[30],> 100 µM
same,IC (TGI),[30],> 100 µM
same,GI50,[31],28.2 µM
same,IC (TGI),[31],> 100 µM
same,GI50,[32],> 100 µM
same,IC (TGI),[32],> 100 µM
